Target: PIK3CG (human) (UniProt P48736)
Assay: Assessment of PIK3CG Kinase Activity

PIK3CG (human), sequence (P48736 whole entry, looked up): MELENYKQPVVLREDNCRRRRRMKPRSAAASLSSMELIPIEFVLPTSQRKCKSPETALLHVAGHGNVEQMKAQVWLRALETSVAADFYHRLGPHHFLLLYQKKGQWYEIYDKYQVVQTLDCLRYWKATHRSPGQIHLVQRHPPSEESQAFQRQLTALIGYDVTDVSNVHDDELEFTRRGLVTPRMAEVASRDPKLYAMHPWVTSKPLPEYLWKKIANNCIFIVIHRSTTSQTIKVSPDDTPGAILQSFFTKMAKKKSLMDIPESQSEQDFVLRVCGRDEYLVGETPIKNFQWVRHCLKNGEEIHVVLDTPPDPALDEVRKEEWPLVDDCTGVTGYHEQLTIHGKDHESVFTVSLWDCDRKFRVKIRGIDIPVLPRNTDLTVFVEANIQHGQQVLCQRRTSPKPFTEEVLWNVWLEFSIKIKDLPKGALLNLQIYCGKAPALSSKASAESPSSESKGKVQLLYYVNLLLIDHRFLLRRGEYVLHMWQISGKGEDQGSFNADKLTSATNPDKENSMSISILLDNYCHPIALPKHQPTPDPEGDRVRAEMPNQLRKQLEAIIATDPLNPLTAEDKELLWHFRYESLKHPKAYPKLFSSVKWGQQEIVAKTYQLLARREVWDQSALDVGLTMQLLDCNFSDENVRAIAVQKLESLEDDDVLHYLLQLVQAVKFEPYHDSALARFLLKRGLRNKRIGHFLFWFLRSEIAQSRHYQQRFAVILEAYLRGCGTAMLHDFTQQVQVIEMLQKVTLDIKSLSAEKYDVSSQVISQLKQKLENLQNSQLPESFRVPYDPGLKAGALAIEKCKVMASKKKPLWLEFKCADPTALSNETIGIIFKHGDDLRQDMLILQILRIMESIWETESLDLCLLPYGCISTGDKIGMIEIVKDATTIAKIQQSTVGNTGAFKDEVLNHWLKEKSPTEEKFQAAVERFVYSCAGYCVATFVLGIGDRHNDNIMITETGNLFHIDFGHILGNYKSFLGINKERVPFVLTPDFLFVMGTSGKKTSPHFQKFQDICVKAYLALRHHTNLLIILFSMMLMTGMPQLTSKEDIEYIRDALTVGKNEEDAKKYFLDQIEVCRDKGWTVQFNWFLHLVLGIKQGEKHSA

## O=C(Nc1nc2c(s1)-c1c(c(-c3cccnc3)nn1-c1ccccc1Cl)CC2)N1CCC(NC(=O)C(F)(F)F)C1 (stereo not given)
  IC50: < 800 nM

## N#Cc1cccc(CNC(=O)Nc2nc3c(s2)-c2c(c(-c4cncnc4)nn2-c2ccccc2Cl)CC3)c1
  IC50: < 800 nM

## CC(=O)Nc1cccc(CNC(=O)Nc2nc3c(s2)-c2c(c(-c4cccnc4)nn2C2CCN(C)CC2)CC3)c1
  IC50: < 800 nM

## O=C(NCc1cccc(C(=O)NC2CCCCC2)c1)Nc1nc2c(s1)-c1c(c(-c3cccnc3)nn1-c1ccccc1Cl)CC2
  IC50: < 800 nM

## COc1cccc(CNC(=O)Nc2nc3c(s2)-c2c(c(-c4cccnc4)nn2C2CCN(C4CCCC4)CC2)CC3)c1
  IC50: < 800 nM

## CN(C)C(=O)CCNC(=O)Nc1nc2c(s1)-c1c(c(-c3cccnc3)nn1-c1ccccc1Cl)CC2
  IC50: < 800 nM

## CS(=O)(=O)c1ccc(CNC(=O)Nc2nc3c(s2)-c2c(c(-c4cncnc4)nn2-c2ccccc2Cl)CC3)cc1
  IC50: < 800 nM

## CC(C)S(=O)(=O)NCCNC(=O)Nc1nc2c(s1)-c1c(c(-c3ccccc3)nn1-c1ccccc1Cl)CC2
  IC50: < 800 nM

## CC(C)(C)OC(=O)CCNC(=O)Nc1nc2c(s1)-c1c(c(-c3cccnc3)nn1-c1ccccc1Cl)CC2
  IC50: < 800 nM

## NCCNC(=O)Nc1nc2c(s1)-c1c(c(-c3ccccc3)nn1-c1ccccc1Cl)CC2
  IC50: < 800 nM

## CN(C)C(=O)N1CC[C@H](CNC(=O)Nc2nc3c(s2)-c2c(c(-c4ccccc4)nn2-c2cccc(Cl)c2)CC3)C1
  IC50: < 800 nM

## O=C(NCCc1ccccn1)Nc1nc2c(s1)-c1c(c(-c3cncnc3)nn1-c1ccccc1Cl)CC2
  IC50: < 800 nM

## CN(C)S(=O)(=O)c1ccccc1CNC(=O)Nc1nc2c(s1)-c1c(c(-c3ccccc3)nn1-c1ccccc1Cl)CC2
  IC50: < 800 nM

## CCN(CC)CCNC(=O)Nc1nc2c(s1)-c1c(c(-c3cncnc3)nn1-c1ccccc1F)CC2
  IC50: < 800 nM

## O=C(NCc1ccc2cc[nH]c2c1)Nc1nc2c(s1)-c1c(c(-c3cncnc3)nn1-c1ccccc1Cl)CC2
  IC50: < 800 nM

## COc1ccc(CCNC(=O)Nc2nc3c(s2)-c2c(c(-c4cncnc4)nn2-c2ccccc2Cl)CC3)cc1OC
  IC50: < 800 nM

## CC(C)(C)OC(=O)N1CCC[C@@H]1CNC(=O)Nc1nc2c(s1)-c1c(c(-c3ccccc3)nn1-c1ccccc1Cl)CC2
  IC50: < 800 nM

## O=C(NCCN1CCOCC1)Nc1nc2c(s1)-c1c(c(-c3cncnc3)nn1-c1ccccc1Cl)CC2
  IC50: < 800 nM

## CN(C)C(=O)CNC(=O)Nc1nc2c(s1)-c1c(c(-c3ccccc3)nn1-c1ccccc1Cl)CC2
  IC50: < 800 nM

## COC(=O)CCNC(=O)Nc1nc2c(s1)-c1c(c(-c3cncnc3)nn1-c1ccccc1Cl)CC2
  IC50: < 800 nM
